Experimental data from patent US9796665B2 (priority 2013, dated 2017).

Key:
[1] = system: RBL-2H3 cells (rat basophilic leukemia cells); assay: Degranulation of mast cells activated by IgE antibody and antigen; type: cell-based; settings: FIG. 3(A) and (B)
Experimental: In order to confirm whether or not the ceramide derivative compound according to the present invention suppresses activities of the mast cells, RBL-2H3 cells (rat basophilic leukemia cells) corresponding to one kind of mast cells were cultured in a DMEM medium containing 10% FBS in a 24-well plate, and then treated with the compound for 16 hours. In order to induce degranulation of the mast cells, the cells were treated with IgE antibody (0.2 μg/ml) and NP-BSA (0.1 μg/ml) for 1 hour, and then, concentrations of β-hexosaminidase and histamine released to the medium were measured. In detail, at the time of measuring the concentration of β-hexosaminidase, 50 μl of the medium was reacted together with 50 μl of p-nitrophenyl-nacetyl-β-d-glucosaminidine, (p-NAG, Sigma) at 37° C. for 2 hours, and then, the reaction was terminated by adding 200 μl of 0.2 M glycine (pH 10.6, Sigma). Absorbance at a wavelength of 405 nm was measured using a spectrometer. The concentration of histamine was measured using a HTRF histamine assay kit (Cisbio). […] Thereafter, fluorescence was measured at 665 nm and 620 nm and compensated by a ratio of 665 nm/620 nm, and then, the concentration of histamine in the cells was measured using a standard curve.

[2] = system: RBL-2H3 cells (rat basophilic leukemia cells); assay: Degranulation of mast cells activated by ionomycin; type: cell-based; settings: FIG. 2(A) and (B)
Experimental: In order to confirm whether or not the ceramide derivative compound according to the present invention suppresses activation of the mast cells, RBL-2H3 cells (rat basophilic leukemia cells) corresponding to one kind of mast cells were cultured in a DMEM medium containing 10% FBS in a 24-well plate, and then treated with the compound for 16 hours. In order to induce degranulation of the mast cells, the cells were treated with 2 μM ionomycin (Sigma), and after 30 minutes, concentrations of β-hexosaminidase and histamine released to the medium were measured. In detail, at the time of measuring the concentration of β-hexosaminidase, 50 μl of the medium was reacted together with 50 μl of p-nitrophenyl-nacetyl-β-d-glucosaminidine, (p-NAG, Sigma) at 37° C. for 2 hours, and then, the reaction was terminated by adding 200 μl of 0.2 M glycine (pH 10.6, Sigma). Absorbance at a wavelength of 405 nm was measured using a spectrometer. The concentration of histamine was measured using a HTRF histamine assay kit (Cisbio). 10 μl of a medium supernatant of the cells was treated with anti-histamine cryptate conjugate and histamine-d2 according to the manufacturer's manual at room temperature for 2 hours. Thereafter, fluorescence was measured at 665 nm and 620 nm and compensated by a ratio of 665 nm/620 nm, and then, the concentration of histamine in the cells was measured using a standard curve. […]

[3] = biological target: T1, cannabinoid receptor 1 (CB1R) (Homo sapiens, UniProt P21554); assay: cAMP production suppression in CHO cells over-expressing CB1R (HTRF cAMP assay, forskolin-induced); type: cell-based; settings: for concentration of cAMP: 0-50 μM compound, 10 μM forskolin, FIG. 1; for Modulation: Target CB1R
T1 construct: host or cells: CHO cells over-expressing CB1R
Text: cAMP production suppression efficacy by agonistic action of the synthesized materials was confirmed using CHO cells in which cannabinoid receptor 1 (CB1R) was over-expressed.
The CHO cells in which the cannabinoid receptor 1 (CB1R) was over-expressed were purchased from Chantest, and cultured in an F-12 medium (Gibco) containing 10% fetal bovine serum (FBS, Gibco). In order to conform an agonistic activity of a ceramide derivative compounds according to the present invention on the cannabinoid receptor, the cells were plated in a 96-well dish, cultured for 24 hours, and then, treated at concentrations of 0, 0.781, 1.562, 3.125, 6.25, 12.5, 25, and 50 μM (0.1% DMSO in PBS). The cells were treated with 10 μM Forskolin (Sigma), thereby inducing cAMP production by adenylyl cyclase in the cells. A concentration of cAMP in the cells was measured using a HTRF cAMP assay kit purchased from Cisbio. After dissolving the cells with lysis buffer in the kit according to the manufacturer's manual, anti-cAMP cryptate conjugate and cAMP-d2 in the kit were treated at room temperature for 2 hours. Thereafter, fluorescence was measured at 665 nm and 620 nm and compensated by a ratio of 665 nm/620 nm, and then, the concentration of cAMP in the cells was measured using a standard curve. Since activity of adenylyl cyclase was suppressed when the cannabinoid receptor 1 (CB1R) was activated, the cannabinoid receptor agonist according to the present invention suppresses production of cAMP in the cells. […] As illustrated in the following Table 1, it may be confirmed that the novel cannabinoid receptor agonists according to the present invention activate the cannabinoid receptor 1 (CB1R) when EC50 was 24 to 26 μM.

[4] = system: RBL-2H3 cells (rat basophilic leukemia cells); assay: Histamine release of mast cells activated by PAR-2 agonist SLIGRL; type: cell-based; settings: FIG. 4
Experimental: The PAR-2, which is a receptor activated by protease (tryptase, chymase, and the like) present outside cells, induces degranulation on surfaces of the mast cells. In order to confirm whether or not the ceramide derivative compound according to the present invention suppresses activities of the mast cells by PAR-2, RBL-2H3 cells (rat basophilic leukemia cells) corresponding to one kind of mast cells were cultured in a DMEM medium containing 10% FBS in a 24-well plate, and then treated with the compound for 2 hours. Thereafter, in order to induce degranulation of the mast cells, the cells were treated with 10 μM SLIGRL peptide, which is a PAR-2 agonist, for 1 hour. The concentration of histamine released outside the cells was measured using a HTRF histamine assay kit (Cisbio). 10 μl of a medium supernatant of the cells was treated with anti-histamine cryptate conjugate and histamine-d2 according to the manufacturer's manual at room temperature for 2 hours. Thereafter, fluorescence was measured at 665 nm and 620 nm and compensated by a ratio of 665 nm/620 nm, and then, the concentration of histamine in the cells was measured using a standard curve. […] Therefore, the novel ceramide derivative according to the present invention, which is the novel cannabinoid receptor agonist, is a compound effectively suppressing the activities of the mast cells.

[5] = system: oxazolone-induced atopic dermatitis animal model; assay: Mast cells in skin of atopic dermatitis animal model (toluidine blue staining); type: in vivo, hairless mice; settings: FIG. 9
Experimental: In order to evaluate whether or not the novel compound according to the present invention suppresses the activities of mast cells in an atopic dermatitis animal model, first, hairless mice were treated with oxazolone (Sigma), thereby establishing an atopic dermatitis animal model. More specifically, on day 1, mice were sensitized with 1% oxazolone in acetone on the back, and after 1 week, the mice were treated with 0.1% oxazolone in acetone on the back every other day for 2 weeks, thereby inducing atopic dermatitis on the back skin of the mice. Thereafter, the compound (1%) according to the present invention was dissolved in a solution in which polyethylene glycol (PEG, Sigma) and ethanol were mixed with each other at a ratio of 7:3, and the mice were treated with the obtained compound solution on the back once in the morning and evening for 10 days. Then, skin biopsy was taken and stained with toluidine blue solution (Sigma), thereby confirming presence of mast cells. […] The mast cells in the skin as described above release various kinds of inflammatory cytokines, thereby aggregating atopic dermatitis. […] The number of mast cells present on the skin in each of the groups was statistically analyzed and illustrated by a graph. […]

[6] = system: oxazolone-induced atopic dermatitis animal model; assay: Oxazolone-induced atopic dermatitis animal model, skin thickness; type: in vivo, hairless mice; settings: FIG. 7(A) and (B)
Experimental: (§1) In order to evaluate efficacy of the novel compound according to the present invention in an animal model, first, hairless mice were treated with oxazolone (Sigma), thereby establishing atopic dermatitis-like animal models. More specifically, on day 1, the mice were sensitized with 1% oxazolone in acetone on the back, and after 1 week, the mice were treated with 0.1% oxazolone in acetone on the back every other day for 2 weeks, thereby inducing atopic dermatitis-like symptoms. Thereafter, the compound (1%) according to the present invention was dissolved in a solution in which polyethylene glycol (PEG, Sigma) and ethanol were mixed with each other at a ratio of 7:3, and the mice were treated with the obtained compound solution on the back once in the morning and evening for 10 days. […] In addition, a skin thickness of each of the animal models was measured and illustrated by a graph. […] Therefore, the compound according to the present invention may be effective to treat atopic dermatitis.

[7] = system: oxazolone-induced atopic dermatitis animal model; assay: IgE and histamine in blood in atopic dermatitis animal model; type: in vivo, hairless mice; settings: for concentration of IgE antibody in the blood: FIG. 8(A); for concentration of histamine in the blood: FIG. 8(B)
Experimental: as §1
In order to evaluate efficacy of the novel compound according to the present invention in an atopic dermatitis animal model, after treating an oxazolone (Sigma)-induced atopic dermatitis animal model with the compound, concentrations of IgE antibody and histamine present in the blood were measured. The IgE and histamine in the blood are known as markers of atopic dermatitis and inflammatory dermatitis such as contact dermatitis, and as the disease aggregates, the concentrations thereof in the blood further increases. The increased IgE activated mast cells, and allowed the mast cells to release a large amount of inflammatory cytokines such as histamine.

T1 sequence (P21554 whole entry): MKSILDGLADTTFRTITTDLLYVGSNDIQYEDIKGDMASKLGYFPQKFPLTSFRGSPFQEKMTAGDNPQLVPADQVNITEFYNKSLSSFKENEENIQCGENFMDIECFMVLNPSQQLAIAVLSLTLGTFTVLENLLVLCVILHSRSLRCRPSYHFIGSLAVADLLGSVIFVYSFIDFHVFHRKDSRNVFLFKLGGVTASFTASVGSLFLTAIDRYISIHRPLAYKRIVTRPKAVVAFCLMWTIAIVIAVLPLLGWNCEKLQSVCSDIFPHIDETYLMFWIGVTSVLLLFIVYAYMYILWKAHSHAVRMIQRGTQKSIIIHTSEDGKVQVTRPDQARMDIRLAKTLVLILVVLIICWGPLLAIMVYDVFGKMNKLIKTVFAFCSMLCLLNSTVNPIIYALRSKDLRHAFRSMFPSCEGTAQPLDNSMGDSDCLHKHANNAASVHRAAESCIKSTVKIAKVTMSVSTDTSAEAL

Structure (SMILES)	activation of the mast cells by IgE antibody and antigen [1]	activation of mast cells by ionomycin [2]	concentration of cAMP [3]	Modulation [3]	activation of mast cells by protease activated receptor 2 (PAR-2) [4]	invasion of mast cells in a lesion site [5]	skin damage [6]	concentration of IgE antibody in the blood [7]	concentration of histamine in the blood [7]
CCCCCCCC/C=C\CCCCCCCC(=O)C(CCCCCC/C=C\CCCCCCCC)C(=O)NCCO (stereo not drawn) [CBS004, (11Z)-2-((Z)-hexadec-7-enyl)-N-(2-hydroxyethyl)-3-oxoicos-11-enamide]	suppression effects	suppression effects	decreased dependently on the concentration of the compound	Agonist	suppression effects	suppressed	repair effects	decrease effects	decrease effects
CCCCCCCC/C=C\CCCCCCCC(=O)C(CCCCCC/C=C\CCCCCCCC)C(=O)NC(CO)CO (stereo not drawn) [CBS007, (11Z)-2-((Z)-hexadec-7-enyl)-N-(1,3-dihydroxypropan-2-yl)-3-oxoicos-11-enamide]	suppression effects	suppression effects	decreased dependently on the concentration of the compound	Agonist	suppression effects	suppressed	repair effects	decrease effects	decrease effects
